# Literature values, collected in patent publication US12121516B2, “Pharmaceutical composition comprising selexipag” (ACTELION PHARMACEUTICALS LTD, priority 2017, dated 2024).
# Key:
# healthy subjects = conditions: administered orally or by i.v. infusion
# [1] = tested on: patients with pulmonary arterial hypertension; conditions: phase III, versus placebo
structure (smiles),measurement,setting,value
"CC(C)N(CCCCOCC(=O)NS(C)(=O)=O)c1cnc(-c2ccccc2)c(-c2ccccc2)n1 [selexipag, 2-{4-[N-(5,6-diphenylpyrazin-2-yl)-N-isopropylamino]butyloxy}-N-(methylsulfonyl)acetamide]",tolerability,healthy subjects,generally well tolerated
same,risk of the primary composite end point of death or a complication related to pulmonary arterial hypertension,[1],significantly lower
